The target of experiment [1] is T1, recombinant ROCK2 (amino acids 1-552) (Homo sapiens, UniProt O75116).
T1 construct: ROCK2 (amino acids 1-552) proteins were purchased from ThermoFisher Scientific; purchased ThermoFisher Scientific
Briefly: Z'-lyte kinase assay, ROCK2. The experiment is classed as biochemical. The note with it: for inhibition at 3 µM / inhibition at 0.5 µM / inhibition at 1 µM: read-out: ROCK2 % inh. The protocol:
(§1) Determination of compounds ROCK inhibitory activity in vitro (Z'lyte assay): recombinant ROCK1 (amino acids 1-535) and ROCK2 (amino acids 1-552) proteins were purchased from ThermoFisher Scientific. Compounds activities were measured by Z′-lyte kinase kit (ThermoFisher Scientific) and IC50s were calculated.
(§2) Table 2, below, provides in vitro and cellular inhibition of ROCKs by compounds of the invention. Compounds activities were measured by Z′-lyte kinase kit (ThermoFisher Scientific). […] IC50s were calculated using the GraphPad Prism software with kinase activities data that were collected from points 9 serial dilution of compounds treatment. The ROCK inhibition in A7R5 cells and NIH3T3 (Acta2-Luc) cells was performed as described above.

Experiment [2] concerns the target T2, recombinant ROCK1 (amino acids 1-535) (Homo sapiens, UniProt Q13464).
T2 construct: recombinant ROCK1 (amino acids 1-535) and ROCK2; purchased ThermoFisher Scientific
Nature of the experiment: Z'-lyte kinase assay, ROCK1. Particulars: for inhibition at 3 µM / inhibition at 0.5 µM: read-out: ROCK1 % inh. The experiment is classed as biochemical. How it is done: as §1, §2

For experiment [3], the system named is phospho-myosin light chains (ppMlc, Thr18/Ser19) in A7R5 cells. Briefly: A7R5 in-cell ELISA, phospho-myosin light chain. The experiment is classed as cell-based, rat. Particulars: for IC50 / inhibition at 10 µM / inhibition at 1 µM: Rattus norvegicus, A7R5 cells; for IC50: 1.5 h, 90 min, read-out: pMLC IC50 A7R5; for inhibition at 10 µM / inhibition at 1 µM: read-out: pMLC % inh A7R5. The protocol:
Determination of compounds ROCK inhibitory activity in A7R5 cells: rat aortic smooth muscle cell line A7R5 cells were maintained and treated in DMEM medium with 10% of fetal bovine serum. Cells were seeded with density of 5,000 cells/well in 96-well plates for 24 hours and subsequently treated 90 min with testing compounds. Cells were then fixed and processed according to the In-Cell ELISA Colorimetric Detection Kit manual (Thermo Scientific). Cellular phospho-myosin light chains (ppMlc, Thr18/Ser19) levels were determined after treatments of DMSO control or test compounds using the In-Cell ELISA kit. The percent inhibition rate was calculated by applying the data obtained with 1 μM (or 10 μM) compound treatment to the formula, [1-(compound/DMSO)]×100%. ppMlc data obtained with 9 points 2-fold serial dilution of compounds were applied to the nonlinear regression curve fit function of the GraphPad Prism software to calculate the In cell IC50s.
A7R5 cells were treated with 9 points 2 fold serial dilution of compounds and ppMlc (T18/S19) levels were determined in order to calculate cellular IC50s of the compounds.
Two steps of measurements were adopted for pMLC/A7R5 IC50. Percent inhibition rates were calculated with a single dose (1 μM or 10 μM) compounds treatment to screen for active compounds and then cellular IC50s were measured only in compounds that have over 50% of inhibition rates.
A general note: An ELISA detects its analyte on a solid surface through an enzyme-linked reagent.

The term IC50 denotes the point on the concentration scale where inhibition reaches its midpoint.

T2 sequence (Q13464 1-535): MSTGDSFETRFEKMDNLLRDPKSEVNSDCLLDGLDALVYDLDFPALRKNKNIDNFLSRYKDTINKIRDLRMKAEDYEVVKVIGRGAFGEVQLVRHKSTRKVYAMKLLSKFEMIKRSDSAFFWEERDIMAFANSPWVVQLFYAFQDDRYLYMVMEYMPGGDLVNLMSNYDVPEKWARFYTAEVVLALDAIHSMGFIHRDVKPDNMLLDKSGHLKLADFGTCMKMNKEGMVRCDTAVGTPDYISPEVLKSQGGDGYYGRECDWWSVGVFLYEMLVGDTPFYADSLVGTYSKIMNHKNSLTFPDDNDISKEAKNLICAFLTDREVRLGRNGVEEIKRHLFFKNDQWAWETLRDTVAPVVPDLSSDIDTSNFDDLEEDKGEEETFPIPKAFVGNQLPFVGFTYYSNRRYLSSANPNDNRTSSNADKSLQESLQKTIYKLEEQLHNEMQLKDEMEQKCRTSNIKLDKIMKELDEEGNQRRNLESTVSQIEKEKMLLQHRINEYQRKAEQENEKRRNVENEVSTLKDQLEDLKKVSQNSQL
T1 sequence (O75116 1-552): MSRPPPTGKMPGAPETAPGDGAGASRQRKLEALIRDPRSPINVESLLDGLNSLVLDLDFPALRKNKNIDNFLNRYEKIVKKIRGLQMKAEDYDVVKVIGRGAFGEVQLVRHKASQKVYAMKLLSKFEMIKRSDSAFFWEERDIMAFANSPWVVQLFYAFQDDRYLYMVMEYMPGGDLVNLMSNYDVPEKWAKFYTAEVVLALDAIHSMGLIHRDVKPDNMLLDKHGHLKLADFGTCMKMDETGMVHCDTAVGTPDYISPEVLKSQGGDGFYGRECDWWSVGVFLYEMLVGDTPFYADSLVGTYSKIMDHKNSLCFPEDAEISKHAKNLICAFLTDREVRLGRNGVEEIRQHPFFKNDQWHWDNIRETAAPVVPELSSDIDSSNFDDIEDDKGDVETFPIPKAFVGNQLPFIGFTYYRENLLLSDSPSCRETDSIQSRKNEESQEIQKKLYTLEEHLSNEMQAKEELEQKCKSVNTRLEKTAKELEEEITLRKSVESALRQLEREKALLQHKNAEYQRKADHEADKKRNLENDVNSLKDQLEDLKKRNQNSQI

Consider `CC(C)NC(C(=O)Nc1ccc2[nH]ncc2c1)c1ccccc1` (stereo not drawn) [Example 22, N-(1H-indazol-5-yl)-2-(isopropylamino)-2-phenylacetamide], for which the inhibition at 3 µM in experiment [1] is 96.7%; in experiment [2] it was 94.3%. The IC50 in experiment [3] amounted to 1800 nM.

Consider `CNC(C(=O)Nc1ccc2[nH]ncc2c1)c1cccc(OC(F)(F)F)c1` (stereo not drawn) [Example 50, N-(1H-indazol-5-yl)-2-(methylamino)-2-(3-(trifluoromethoxy)-phenyl)acetamide], for which the half-inhibitory concentration (IC50) in experiment [1] was 21 nM. Besides, the inhibition at 0.5 µM in experiment [1] and in experiment [2] was 93% throughout.

For the molecule `NC(C(=O)Nc1ccc2[nH]ncc2c1)c1ccccc1` (stereo not drawn) [Comp3, reference compound], the results for the inhibition at 3 µM in experiment [1] and in experiment [2] were 97.4% and 91.5%, respectively. In addition, the half-maximal inhibitory concentration (IC50) in experiment [3] is 10900 nM.

For `COc1ccc(C(NC2CC2)C(=O)Nc2ccc3[nH]ncc3c2)cc1` (stereo not drawn) [Example 27, 2-(cyclopropylamino)-N-(1H-indazol-5-yl)-2-(4-methoxyphenyl)acetamide], the figures for the IC50 in experiment [1], in experiment [2] and in experiment [3] were 66 nM, 79 nM and 2980 nM, respectively.

Take `CCNC(C(=O)Nc1ccc2[nH]ncc2c1)c1ccc(F)cc1` (stereo not drawn) [Example 23, 2-(ethylamino)-2-(4-fluorophenyl)-N-(1H-indazol-5-yl)acetamide]: the half-inhibitory concentration (IC50) in experiment [1] turned out to be 43 nM; in experiment [2], 495 nM; in experiment [3] it was 1060 nM. Further, the values for the inhibition at 3 µM in experiment [1] and in experiment [2] were 95.3% and 94.3%, respectively.

Turning to `CCNC(C(=O)Nc1ccc2[nH]ncc2c1)c1cccc(C)c1` (stereo not drawn) [Example 49, 2-(ethylamino)-N-(1H-indazol-5-yl)-2-(m-tolyl)acetamide], the IC50 in experiment [1] amounted to 87 nM. Also, the results for the inhibition at 0.5 µM in experiment [1] and in experiment [2] were 76% and 88%, respectively.

For the molecule `CNC(C(=O)Nc1ccc2[nH]ncc2c1)c1ccc(-c2ccccc2OC)cc1` (stereo not drawn) [Example 32, N-(1H-indazol-5-yl)-2-(2′-methoxy-[1,1′-biphenyl]-4-yl)-2-(methylamino)acetamide], the concentration for half-maximal inhibition (IC50) in experiment [1] is > 1000 nM; in experiment [2] it was 310 nM. In addition, the inhibition at 10 µM in experiment [3] amounted to 5%.

As to `CNC(C(=O)Nc1ccc2[nH]ncc2c1)c1ccc(F)c(OC)c1` (stereo not drawn) [Example 48, 2-(4-fluoro-3-methoxyphenyl)-N-(1H-indazol-5-yl)-2-(methylamino)acetamide], in experiment [1], the concentration for half-maximal inhibition (IC50) amounted to 71 nM and the inhibition at 0.5 µM came to 76%. For the same molecule, in experiment [2], the inhibition at 0.5 µM is 87%.

With `Cc1ccc(C(NC2CC2)C(=O)Nc2ccc3[nH]ncc3c2)cc1` (stereo not drawn) [Example 31, 2-(cyclopropylamino)-N-(1H-indazol-5-yl)-2-(p-tolyl)acetamide], the values for the half-inhibitory concentration (IC50) in experiment [1] and in experiment [2] were > 1000 nM and 228 nM, respectively. Besides, in experiment [3], the inhibition at 10 µM amounted to 35%.

For the molecule `Cc1ccc(C(NC(C)(C)C)C(=O)Nc2ccc3[nH]ncc3c2)cc1` (stereo not drawn) [Example 38, 2-(tert-butylamino)-N-(1H-indazol-5-yl)-2-(p-tolyl)acetamide], the IC50 in experiment [1] is 27.4 nM; in experiment [2], 61.4 nM; in experiment [3] it was 1340 nM. Further, the inhibition at 3 µM in experiment [1] and in experiment [2] was 100% in each case.

Turning to `O=C(Nc1ccc2[nH]ncc2c1)C1CNc2ccccc2C1` (stereo not drawn) [Example 3, N-(1H-indazol-5-yl)-1,2,3,4-tetrahydroquinoline-3-carboxamide], the inhibition at 3 µM in experiment [1] and in experiment [2] was 0% each time. For the same molecule, the inhibition at 1 µM in experiment [3] turned out to be 25%.

In the case of `COc1cccc(C(NCCN(C)C)C(=O)Nc2ccc3[nH]ncc3c2)c1` (stereo not drawn) [Example 34, 2-((2-(dimethylamino)ethyl)amino)-N-(1H-indazol-5-yl)-2-(3-methoxyphenyl)acetamide], in experiment [1], the IC50 worked out at 438 nM. In addition, the inhibition at 10 µM in experiment [3] was 49%.

As to `NC(C(=O)Nc1ccc2[nH]ncc2c1)c1ccccc1F` (stereo not drawn) [Comp7, reference compound], the IC50 was found to be 303 nM in experiment [1], 166 nM in experiment [2] and 18400 nM in experiment [3]. Further, the inhibition at 3 µM in experiment [1] and in experiment [2] was 100% in each case.

`CCNC(C(=O)Nc1ccc2[nH]ncc2c1)c1ccc(Cl)cc1` (stereo not drawn) [Example 17, 2-(4-chlorophenyl)-2-(ethylamino)-N-(1H-indazol-5-yl)acetamide]: the IC50 in experiment [1] is 248 nM; in experiment [2] it was < 10 nM; in experiment [3], 556 nM. The inhibition at 3 µM in experiment [1] is 96.3%; in experiment [2], 93.3%. Besides, the “cellular ROCK inhibition compared with Comparative Example 2” value in experiment [3] (phosphorylation of the ROCK target pMLC in A7R5 cells) is “enhanced”.

As to `CNC(C(=O)N(CCN(C)C)c1ccc2[nH]ncc2c1)c1cccc(OC)c1` (stereo not drawn) [Example 7, N-(2-(dimethylamino)ethyl)-N-(1H-indazol-5-yl)-2-(3-methoxyphenyl)-2-(methylamino)acetamide], in experiment [1], the IC50 is 1630 nM and the inhibition at 1 µM worked out at 11%. Further, the inhibition at 0.5 µM in experiment [2] worked out at 16%. Further, the inhibition at 10 µM in experiment [3] is 2%.

For `COCCNC(C(=O)Nc1ccc2[nH]ncc2c1)c1cccc(OC)c1` (stereo not drawn) [Example 46, N-(1H-indazol-5-yl)-2-((2-methoxyethyl)amino)-2-(3-methoxyphenyl)acetamide], the inhibition at 1 µM in experiment [1] is 67%. Further, the inhibition at 10 µM in experiment [3] turned out to be 27%.

For `CNC(C(=O)Nc1ccc2[nH]ncc2c1)c1ccc(-c2ccccc2F)cc1` (stereo not drawn) [Example 33, 2-(2′-fluoro-[1,1′-biphenyl]-4-yl)-N-(1H-indazol-5-yl)-2-(methylamino)acetamide], the inhibition at 1 µM in experiment [1] is 66.5%. Also, the inhibition at 10 µM in experiment [3] amounted to 48%.

For `CCOc1ccc(C(NC)C(=O)Nc2ccc3[nH]ncc3c2)cc1` (stereo not drawn) [Example 43, 2-(4-ethoxyphenyl)-N-(1H-indazol-5-yl)-2-(methylamino)acetamide], in experiment [1], the IC50 was determined as 73 nM and the inhibition at 1 µM is 98%. Besides, the inhibition at 10 µM in experiment [3] was 4%.

Regarding `CC1NC(C(=O)Nc2ccc3[nH]ncc3c2)c2ccccc21` (stereo not drawn) [Example 9, N-(1H-indazol-5-yl)-3-methylisoindoline-1-carboxamide], the inhibition at 1 µM in experiment [3] stood at 4%.

Regarding `O=C(Nc1ccc2[nH]ncc2c1)C1CCCN1` (stereo not drawn) [Example 10, N-(1H-indazol-5-yl)pyrrolidine-2-carboxamide], in experiment [3], the inhibition at 1 µM stood at 1%.

For `O=C(Nc1ccc2[nH]ncc2c1)C1CCNC1` (stereo not drawn) [Example 11, N-(1H-indazol-5-yl)pyrrolidine-3-carboxamide], in experiment [3], the inhibition at 1 µM was 1%.

On to `Cc1ccc(C(N)C(=O)Nc2ccc3[nH]ncc3c2)cc1` (stereo not drawn) [Comp5, reference compound], for which, in experiment [1], the concentration for half-maximal inhibition (IC50) was found to be 33 nM and the inhibition at 1 µM was 96.2%. Moreover, in experiment [2], the IC50 stood at 1310 nM and the inhibition at 3 µM stood at 99%.

Turning to `CNC(C(=O)Nc1ccc2[nH]ncc2c1)c1ccccc1OC` (stereo not drawn) [Example 35, N-(1H-indazol-5-yl)-2-(2-methoxyphenyl)-2-(methylamino)acetamide], the inhibition at 1 µM worked out at 71% in experiment [1] and 16% in experiment [3].

For the molecule `O=C(Nc1ccc2[nH]ncc2c1)[C@@H]1CC[C@H](c2ccccc2)N1` [Example 12, (2S,5R)-N-(1H-indazol-5-yl)-5-phenylpyrrolidine-2-carboxamide], the inhibition at 1 µM in experiment [3] came out at 1%.

With `CNC(C(=O)Nc1ccc2[nH]ncc2c1)c1ccc(-c2ccc(OC)cc2)cc1` (stereo not drawn) [Example 45, N-(1H-indazol-5-yl)-2-(4′-methoxy-[1,1′-biphenyl]-4-yl)-2-(methylamino)acetamide], in experiment [1], the inhibition at 1 µM was 22%. Moreover, the inhibition at 10 µM in experiment [3] was determined as 4%.

Turning to `O=C(Nc1ccc2[nH]ncc2c1)C1CCCCN1` (stereo not drawn) [Example 13, N-(1H-indazol-5-yl)piperidine-2-carboxamide], the inhibition at 1 µM in experiment [3] worked out at 11%.

Regarding `O=C(Nc1ccc2[nH]ncc2c1)C1CNCc2ccccc21` (stereo not drawn) [Example 8, N-(1H-indazol-5-yl)-1,2,3,4-tetrahydroisoquinoline-4-carboxamide], in experiment [1], the inhibition at 1 µM worked out at 76.7%. Moreover, in experiment [3], the IC50 was determined as 2620 nM.

Turning to `CNC(C(=O)Nc1ccc2[nH]ncc2c1)c1ccc(OC(C)C)cc1` (stereo not drawn) [Example 44, N-(1H-indazol-5-yl)-2-(4-isopropoxyphenyl)-2-(methylamino)acetamide], the half-inhibitory concentration (IC50) in experiment [1] was found to be 455 nM. Further, the inhibition at 10 µM in experiment [3] amounted to 42%.

The values above are taken from patent US11926596B2, “Inhibitors of Rho associated coiled-coil containing protein kinase” (KADMON CORPORATION, LLC, priority 2017, dated 2024).
